{"source": "patent EP4763971A1", "about": "“MULTI-ORGANS-ON-A-CHIP WITH INVERTED MICROWEIR STRUCTURE AS MULTI-CELL CULTURE PLATFORM AND USE THEREOF” (Humanase, priority 2023, dated 2025)", "key": {"[1]": {"system": "cardiomyocytes (Cardiosight-S)", "conditions": "control heart-on-a-chip, 9,000 µM cyclophosphamide, compared to cardiomyocytes not treated with cyclophosphamide", "excerpt": "(§1) Next, cardiomyocytes (Cardiosight-S) differentiated from human pluripotent stem cells (hPSCs) from NEXEL were mixed with a hydrogel such as collagen, and then injected using a pipette into the cell inlet connected to the inner cell chamber of the multi-organ-on-a-chip prepared in Example 1, thereby injecting cardiomyocytes into the inner cell chamber.\n(§2) Next, the hydrogel comprised in the injected cardiomyocyte mixture was cured to fix the cardiomyocytes within the cell chamber. Depending on the type of hydrogel, curing is performed using different curing methods. In the case of collagen, curing was performed via temperature change by placing in an incubator for at least 1 hour, and then cardiomyocytes were continuously cultured in the incubator.\nThe culture was performed by supplying a culture medium comprising a mixture of Cardiosight-S Media supplemented with supplement (50X) and Minimum Essential Media Eagle (MEM, high-glucose, gibco) supplemented with 25 mM HEPES (4-(2-hydroxyethyl)-1-piperazineethanesulfonic acid, gibco), 10% (v/v) FBS, P/S (100 Uml-1 penicillin/100 Uml-1 streptomycin, Sigma-Aldrich Co., MO) at a certain ratio. […]"}, "[2]": {"system": "cardiomyocytes (Cardiosight-S)", "description": "as §1\nNext, 1 x 10^5 cultured hepatocytes (HepG2) were injected using a pipette into each cell inlet connected to the two outer cell chambers of the multi-organ-on-a-chip prepared in Example 1, thereby injecting hepatocytes into the two outer cell chambers.\nas §2\nFurther, hepatocytes were fixed and cultured using the same method. […]"}}, "note": "Read-outs that look alike come from different tables or passages of the source."}
{"smiles": "O=P1(N(CCCl)CCCl)NCCCO1", "note": "(stereo not drawn) [cyclophosphamide]", "values": [{"measurement": "beating rate of the cardiomyocytes increased", "setting": "[1]", "value": "31.76 ± 0.59", "unit": "%"}, {"measurement": "effect on the beating rate of cardiomyocytes", "setting": "[2]; liver-heart-on-a-chip compared to the control heart-on-a-chip, 0, 1,000, 5,000, or 9,000 µM (FIG. 8)", "value": "more significant effect"}, {"measurement": "beating rate of the cardiomyocytes increased", "setting": "[2]; liver-heart-on-a-chip, 9,000 µM cyclophosphamide, compared to cardiomyocytes not treated with cyclophosphamide", "value": "177.9 ± 2.56", "unit": "%"}]}
